Experimental data published in patent US20040214799A1, “Cancerous metastasis inhibitors containing carbacyclic phosphatidic acid derivatives” (priority 2001, published 2004).
“And” between values parts separate entries of the source, which are not always exact repeats. Identical values can stand only once.

Tested on: Mouse malignant melanoma B16-F0
Experiment: B16 melanoma hematogenous lung metastasis model; as to Metastatic nodules, Abdominal cavity Adipose tissue: key: −: Absent; +: Present; as to Metastatic nodules, Abdominal cavity Adrenal gland: key: −: Absent; +: Present; as to Metastatic nodules, Abdominal cavity Diaphragm: key: −: Absent; +: Present; as to Metastatic nodules, Abdominal cavity Kidney: key: −: Absent; +: Present; as to Metastatic nodules, Abdominal cavity Ovary: key: −: Absent; +: Present; as to Metastatic nodules, Abdominal cavity Spleen: key: −: Absent; +: Present; as to Metastatic nodules, Thoracic cavity: key: −: Absent; +: Present; as to Metastatic nodules, Tissue around glandual clitoris: key: −: Absent; +: Present
Type: in vivo
Conditions: for invasion of lymphocytes into metastatic lesions observed in cases: animals with metastatic lesions; for Metastatic nodules, Abdominal cavity Adipose tissue / Metastatic nodules, Abdominal cavity Adrenal gland / Metastatic nodules, Abdominal cavity Diaphragm / Metastatic nodules, Abdominal cavity Kidney / Metastatic nodules, Abdominal cavity Ovary / Metastatic nodules, Abdominal cavity Spleen / Metastatic nodules, Thoracic cavity / Metastatic nodules, Tissue around glandual clitoris: autopsy day 14, individual animals; for Number of lung tumor nodules, Range (mininum-maximum) / Number of mice having lung tumor nodules: day 14, N 6; for Number of lung tumor nodules: day 14, mean ± S.D.; for Number of lung tumor nodules / Number of mice having metastatic lesions: N 6; for Number of mice having metastatic lesions / Findings: Invasion of lymphocytes into melanoma metastatic lesion: lung histopathology; for Findings: Invasion of lymphocytes into melanoma metastatic lesion: individual animals; for Number of metastatic lesions per section, Large size: major diameter 0.65 mm ≦ and <1.3 mm; for Number of metastatic lesions per section, Large size / Number of metastatic lesions per section, Small size / Number of metastatic lesions per section, Total: mean ± S.D.; for Number of metastatic lesions per section, Small size: major diameter <0.65 mm, left lobe and posterior lobe
Experimental: cPA-19 and cPA-20 were used as test substances. 0.1 w/v % BSA/PBS which was prepared by dissolving Albumin, Bovine [essentially Fatty Acid Free] (BSA, Lot No. 89H7604, Sigma chemical company) in Ca^2+ and Mg^2+ free PBS (pH 7.2), was used as a medium After preparation, the solution was sterilized by filtration using a filter (0.22 μm, Millipore). Preparation was performed when used. cPA-5 was used as a positive control substance.
A medium was added in a volume required for a test substance or a positive control substance. Dissolution was performed by ultrasonication, thereby preparing a 0.16 mg/mL solution. The 0.16 mg/mL solution containing a test substance was diluted with a medium, thereby preparing 0.08 and 0.02 mg/mL solutions. All mixtures were prepared when used.
Mice were purchased from CHARLES RIVER JAPAN. INC. The line employed herein was C57BL/6NCrj (sexuality: female). The number of animals kept in stock was 60, and the age of these animals when kept in stock was 4 weeks. […] The environmental conditions for the test system were as follows:
Mouse malignant melanoma B16-F0 was used as a tumor cell. The cell was purchased from Dainippon Pharmaceutical Co., Ltd.
Dulbecco's Modified Eagle's Media containing 10% feral bovine serum and kanamycin were used for culture. […] A medium was added to stop the action of trypsin while pipetting, thereby preparing a cell suspension. The suspension was diluted by one-tenth with a medium for culturing, followed by subculturing until it reached a volume sufficient for grafting.
A cell suspension was prepared by the same technique as the subculture method. Specifically, the cells were washed with a Ca^2+ and Mg^2+ free phosphate buffer [PBS(−)], and then harvested. The harvested cells were suspended in a 10 mL of PBS(−), thereby preparing a cell suspension. The number of cells in the cell suspension was measured to obtain the total cell number. 50 μL of the cell suspension, 100 μL of 0.4% trypan blue liquid and 100 μL of PBS(−) were mixed, and then viable count was measured. The survival rate of the cells was calculated from the viable count and total cell number.
Based on the body weight on the day of the administration of the test substance, mice were grouped into 8 test groups according to the stratified continuous randomization method as shown in Table 2 below.
The mixture was administered via the caudal vein. The number of grafted cells was 5×10^5 cells/body. The dose of the test substance was 0.001, 0.004 or 0.008 mg/body, and the dose of the positive control substance was 0.008 mg/body.
On day 14 after the administration of the test substance, blood was collected from the posterior portion of the abdominal vena cava under isoflurane anesthesia. After the mice were sacrificed by blood-letting, the presence or absence of intrapleural and intraperitoneal metastatic nodules was confirmed. Lungs were extracted, and then fixed with a 10% neutral buffered formalin solution. The number of nodules resulting from lung metastasis was measured under a stereoscopic microscope (magnification: 10 times).
After the measurement of the number of nodules resulting from lung metastasis, samples were paraffin-embedded, and then thin sections were prepared. Hematoxylin eosinic-stained samples were prepared from these sections. The number of metastatic lesions in the certain portions of the left lobe and the posterior lobe was measured, and then the lesions were sorted by size. On the basis of the diameter (0.65 mm) of an object lens (×40), metastatic lesions with major diameters of less than 0.65 mm were classified as having a small size, and those with major diameters of between 0.65 mm or more and less than 1.30 mm were classified as having a large size. Furthermore, the degree of invasion of lymphocytes into metastatic lesions was confirmed qualitatively.
The representative value of each test group was denoted as mean±standard deviation (mean±S.D.). Differences in mean values were examined as follows.

[1] = 0.001 mg/body i.v., autopsy, 6 mice
[2] = 0.004 mg/body i.v., autopsy, 6 mice
[3] = 0.008 mg/body i.v., autopsy, 6 mice

## carba-ΔPal-cPA [cPA-20]
0.001 mg/body i.v.
  invasion of lymphocytes into metastatic lesions observed in cases: 1 out of 4
  Metastatic nodules, Abdominal cavity Adipose tissue: −
  Metastatic nodules, Abdominal cavity Adrenal gland: −
  Metastatic nodules, Abdominal cavity Diaphragm: − (5×) and +
  Metastatic nodules, Abdominal cavity Kidney: −
  Metastatic nodules, Abdominal cavity Ovary: − (5×) and +
  Metastatic nodules, Abdominal cavity Spleen: − (5×) and +
  Metastatic nodules, Thoracic cavity: − (5×) and +
  Metastatic nodules, Tissue around glandual clitoris: − (5×) and +
  Number of lung tumor nodules, Range (mininum-maximum): 17-112
  Number of mice having lung tumor nodules: 6
  Number of lung tumor nodules: 58 ± 40
  Number of mice having metastatic lesions: 4
  Findings: Invasion of lymphocytes into melanoma metastatic lesion: − (3×) and ++
  Number of metastatic lesions per section, Large size: 1.2 ± 1.3
  Number of metastatic lesions per section, Small size: 3.2 ± 3.5
  Number of metastatic lesions per section, Total: 4.3 ± 4.6
[1]
  cases with metastatic nodules in the diaphragm: 1 case
  cases with metastatic nodules in the ovary: 1 cases
  cases with metastatic nodules in the spleen: 1 case
  cases with metastatic nodules in the thoracic cavity: 1 case
  cases with metastatic nodules in tissue around the glandual clitoris: 1 case
0.004 mg/body i.v.
  number of metastatic nodules of B16-F0 in the lungs versus medium group (in words): significant decrease in the number of metastatic nodules
  invasion of lymphocytes into metastatic lesions observed in cases: no invasions were observed in 1 case
  Metastatic nodules, Abdominal cavity Adipose tissue: −
  Metastatic nodules, Abdominal cavity Adrenal gland: −
  Metastatic nodules, Abdominal cavity Diaphragm: −
  Metastatic nodules, Abdominal cavity Kidney: −
  Metastatic nodules, Abdominal cavity Ovary: −
  Metastatic nodules, Abdominal cavity Spleen: − (5×) and +
  Metastatic nodules, Thoracic cavity: −
  Metastatic nodules, Tissue around glandual clitoris: −
  Number of lung tumor nodules, Range (mininum-maximum): 0-4
  Number of mice having lung tumor nodules: 2 &
  Number of lung tumor nodules: 1 ± 2
  Number of mice having metastatic lesions: 1 &&
  Findings: Invasion of lymphocytes into melanoma metastatic lesion: −
  Number of metastatic lesions per section, Large size: 0 ± 0!!
  Number of metastatic lesions per section, Small size: 0.2 ± 0.4
  Number of metastatic lesions per section, Total: 0.2 ± 0.4!!
[2]
  cases with metastatic nodules in the spleen: 1 case
  metastatic nodules in the thoracic cavity: no metastatic nodules were observed
0.008 mg/body i.v.
  metastasis / number of metastatic nodules in the lungs versus medium group (in words): almost completely suppressed metastasis
  Metastatic nodules, Abdominal cavity Adipose tissue: −
  Metastatic nodules, Abdominal cavity Adrenal gland: −
  Metastatic nodules, Abdominal cavity Diaphragm: −
  Metastatic nodules, Abdominal cavity Kidney: −
  Metastatic nodules, Abdominal cavity Ovary: −
  Metastatic nodules, Abdominal cavity Spleen: − (5×) and +
  Metastatic nodules, Thoracic cavity: −
  Metastatic nodules, Tissue around glandual clitoris: −
  Number of lung tumor nodules, Range (mininum-maximum): 0-1
  Number of mice having lung tumor nodules: 1 &&
  Number of lung tumor nodules: 0 ± 0
  Number of mice having metastatic lesions: 0 &&
  Number of metastatic lesions per section, Large size: 0 ± 0!!
  Number of metastatic lesions per section, Small size: 0 ± 0!
  Number of metastatic lesions per section, Total: 0 ± 0!!
[3]
  cases with metastatic nodules in the spleen: 1 case
  metastatic nodules in the thoracic cavity: no metastatic nodules were observed
0.001, 0.004 and 0.008 mg/body i.v.
  number of mice having intrapleural or intraperitoneal metastatic nodules, dose dependence (in words): decreased as the dose increased
0.004 and 0.008 mg/body i.v.
  action of suppressing the lung metastasis of B16-F0 compared with cPA-5: stronger than that of cPA-5
